According to ChEMBL document CHEMBL1126239, “Quinazoline antifolate thymidylate synthase inhibitors: difluoro-substituted benzene ring analogues” (J Med Chem, 1992):

Tests used:
L1210 [1] = assay: The compound was tested in vitro for the inhibition of L1210 cell growth in the presence of thymidine; format: functional, Mus musculus; design: concentration or dose not given beside the values
Thymidylate synthase = Thymidylate synthase (Mus musculus, UniProt P07607); assay: Inhibition of thymidylate synthase from L1210 cells; format: cell-based
Chain of Thymidylate synthase (P07607 whole entry): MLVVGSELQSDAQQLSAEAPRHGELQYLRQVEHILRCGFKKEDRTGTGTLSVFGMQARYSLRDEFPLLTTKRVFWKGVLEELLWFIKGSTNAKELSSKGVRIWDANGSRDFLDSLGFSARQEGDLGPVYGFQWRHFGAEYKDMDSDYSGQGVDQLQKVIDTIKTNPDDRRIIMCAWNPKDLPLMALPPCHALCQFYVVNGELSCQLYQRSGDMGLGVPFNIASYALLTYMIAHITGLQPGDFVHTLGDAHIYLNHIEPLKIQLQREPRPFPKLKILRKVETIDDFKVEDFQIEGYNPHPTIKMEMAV

L1210 [2] = assay: The compound was tested in vitro for the inhibition of L1210 cell growth in culture; format: functional, cell-based; conditions: Mus musculus

Row | SMILES | Control (L1210 [1]) [%] | IC50 (Thymidylate synthase) [nM] | IC50 (L1210 [2]) [nM]
1 | C#CCN(Cc1ccc2nc(C)nc(O)c2c1)c1cc(F)c(C(=O)N[C@@H](CCC(=O)O)C(=O)O)cc1F | 95 | 600 | 27
2 | C#CCN(Cc1ccc2nc(C)nc(O)c2c1)c1ccc(C(=O)N[C@@H](CCC(=O)O)C(=O)O)c(F)c1F | 94 | 1700 | 280
3 | Cc1nc(O)c2cc(CN(C)c3ccc(C(=O)N[C@@H](CCC(=O)O)C(=O)O)c(F)c3F)ccc2n1 |  | 1000 | 140
4 | C#CCN(Cc1ccc2nc(C)nc(O)c2c1)c1cc(F)c(C(=O)N[C@@H](CCC(=O)O)C(=O)O)c(F)c1 | 93 | 80 | 62
5 | Cc1nc(O)c2cc(CN(C)c3cc(F)c(C(=O)N[C@@H](CCC(=O)O)C(=O)O)c(F)c3)ccc2n1 | 90 | 950 | 50
6 | Cc1nc(O)c2cc(CN(C)c3cc(F)c(C(=O)N[C@@H](CCC(=O)O)C(=O)O)cc3F)ccc2n1 | 94 | 1100 | 75
